# Experimental data published in US9863933B2, “Method for determining the repair activity of non-homologous end joining” (Soochow University, priority 2015, dated 2018).
# Key:
# Format in all cases: cell-based
# [1] = test system: NHEJ repair activity in 293T cells; assay: NHEJ repair activity by TALEN-induced HPRT mutation, 6-TG selection and MTT cell viability; conditions: for inhibition rate of NHEJ repair activity: then 30 μmol/L 6-TG 72 h
# Procedure: The inhibiting effects of different concentrations of NU7441 on NHEJ are determined by using the TALEN technology, and the specific steps are as follows:
# (1) a TALEN plasmid for HPRT gene was constructed. The specific steps comprise: a left-arm recognition sequence ATGACCTTGATTTA (SEQ ID NO:1) and a right-arm recognition sequence CCAAATCCTCAGCA (SEQ ID NO:2) of the target HPRT gene were designed according to the TALEN design principle, and the two recognition sequences were inserted into a corresponding backbone carrier according to the method indicated on the TALEN construction kit. Competent E. coli cells were transformed with the carrier, uniformly spread on a kanamycin-resistant (20 μg/ml) plate and cultured in an incubator at 37° C. for 12-16 h, then 3-5 clones were selected and inoculated in 5 ml LB culture solution (containing 20 μg/ml kanamycin), and cultured in a shaker at 250 rpm under 37° C. for 16 h, plasmids were extracted and sequenced, and the obtained sequences were compared with the designed recognition sequences, ensuring the left-arm and right-arm TALEN plasmids with correct sequences were obtained.
# (2) the left-arm and right-arm TALEN plasmids were transfected into 293T cells. The specific steps comprise: 293T cells were inoculated into a culture dish of 6 cm, and 4 μg left-arm plasmids and 4 μg right-arm plasmids were transfected into the 293T cells by using Lipofectamine 3000 when cell density reached 70%.
# (3) the 293T cells were treated with different concentrations of the inhibitor NU7441. […]
# (§1) (5) cell viability was determined by a MTT method. The specific steps comprise: a MTT solution was added after the treatment was completed, 2 h later, the formed blue formazan particles were dissolved with DMSO, and then the light absorption value of each well was determined at OD570 nm via a microplate reader. […]
# [2] = test system: NHEJ repair activity in 293T cells; assay: NHEJ repair activity by CRISPR/Cas9-induced HPRT mutation, 6-TG selection and MTT cell viability (NU7441 treatment time)
# Procedure: The time dependence of the inhibiting effect of 2.0 μmol/L NU7441 on NHEJ was determined by using the CRISPR/Cas9 technology, specific steps were as follows:
# (1) a Cas9/gRNA plasmid was constructed for HPRT gene. The specific steps comprise: a target site primer of HPRT was designed according to a gRNA design principle, wherein the forward primer is […] (SEQ ID NO:3), and the reverse primer is […] (SEQ ID NO:4). The primers were annealed to form a dimer, and the gRNA-sequence primer dimer was inserted into a Cas9/gRNA plasmid according to the method indicated on the CRISPR/Cas9 construction kit. Competent E. coli cells were transformed with the plasmid, spread on an ampicillin-resistant plate. 3-5 clones were selected and cultured in a shaker, plasmids were extracted and sequenced, and the obtained sequences were compared with the designed recognition sequences, ensuring the Cas9/gRNA plasmids with correct sequences were obtained.
# (2) the Cas9/gRNA plasmids were transfected into 293T cells. […]
# as §1
# [3] = test system: NHEJ repair activity in 293T cells; assay: NHEJ repair activity by CRISPR/Cas9-induced HPRT mutation with siRNA co-transfection, 6-TG selection and MTT cell viability; conditions: CRISPR/Cas9, 3 μg siRNA co-transfected, versus negative control siRNA
# Procedure: The inhibiting effect of DNA-PKcs siRNA on NHEJ was determined by using a CRISPR/Cas9 technology, and the specific steps comprise:
# (1) a Cas9/gRNA plasmid was constructed for HPRT gene, and the specific steps are as described in the embodiment 2.
# (2) the Cas9/gRNA plasmid and DNA-PKcs siRNA were co-transfected into 293T cells. The specific steps comprise: 293T cells were inoculated into a culture dish of 6 cm, and 3 μg Cas9/gRNA plasmid and 3 μg DNA-PKcs siRNA were co-transfected into the 293T cells by using Lipofectamine 3000 when cell density reached 70%, and a negative control siRNA was transfected for the negative control group. The gene sequence of DNA-PKcs siRNA was […] (SEQ ID NO:5).
# (3) the cells were treated with 6-TG. The specific steps comprise: the cells were inoculated into a 96-well plate after the transfection is performed for 24 h, then the culture medium was replaced with a DMEM culture medium containing 30 μmol/L 6-TG after cell attachment, and the cells were continually cultured for 72 h.
# as §1, with “(4)” for “(5)”
Compound,inhibition rate of NHEJ repair activity ([1]; 0.5 μmol/L for 4 h),inhibition rate of NHEJ repair activity ([1]; 1.0 μmol/L for 4 h),"inhibiting effect on NHEJ repair activity ([1]; concentration increased to 2.0 μmol/L, 4 h (compared with 0.5, 1.0 μmol/L))","inhibition rate of NHEJ repair activity ([2]; CRISPR/Cas9, 2.0 μmol/L for 1 h, then 30 μmol/L 6-TG 72 h)","inhibiting effect on NHEJ activity ([2]; CRISPR/Cas9, 2.0 μmol/L, treatment longer than 1 h (2 and 4 h))",repair activity of NHEJ [3]
O=c1cc(N2CCOCC2)oc2c(-c3cccc4c3sc3ccccc34)cccc12 [NU7441],about 50%,about 50%,the inhibiting effect was reduced,about 50%,reduced over time,
"DNA-PKcs siRNA: siRNA of the NHEJ repair molecule DNA-PKcs, sequence UUCUCCGAACGUGUCACGUTT (SEQ ID NO:5), synthesized by GenePharma (chemistry not given here)",,,,,,inhibited significantly
